Results as given in ChEMBL document CHEMBL5038589, “Design, Synthesis, and Structure-Activity Relationship of N-Aryl-N'-(thiophen-2-yl)thiourea Derivatives as Novel and Specific Human TLR1/2 Agonists for Potential Cancer Immunotherapy” (J Med Chem, 2021).
Activity calls are given as the source filed them. No cut-off for these calls is given here.

Tests used:
[1] = biological target: Toll-like receptor 3 (Homo sapiens) (UniProt O15455); experiment: Agonist activity at TLR3 in HEK-Blue hTLR3 cells at 0.1 to 100 uM incubated for 24 hrs by Quanti-Blue based SEAP assay; type: cell-based; settings: dose 0.1-100 µM
[2] = Cytotoxicity against HEK-Blue TLR2 cells upto 100 uM incubated for 24 hrs by CCK-8 assay; type: toxicity, cell-based; settings: human, hek-blue htlr2, 24 h
THP-1 [3] = experiment: Upregulation of TLR2 expression in human THP-1 cells at 0.01 to 50 uM incubated for 24 hrs by Western blot analysis; type: functional, cell-based; settings: dose 0.01-50 µM
THP-1 [4] = experiment: Induction of TNFalpha secretion in human PMA-differentiated THP-1 cells incubated for 24 hrs by ELISA method; type: functional, cell-based; settings: dose 0.01-10 µM
[5] = biological target: Toll-like receptor 4 (Homo sapiens) (UniProt O00206); experiment: Agonist activity at TLR4 in HEK-Blue hTLR4 cells at 0.1 to 100 uM incubated for 24 hrs by Quanti-Blue based SEAP assay; type: cell-based; settings: dose 0.1-100 µM
THP-1 [6] = experiment: Induction of ERK phosphorylation in human PMA-differentiated THP-1 cells at 10 uM incubated for 2 hrs by Western blot analysis; type: functional, cell-based
CD4+ve Th = experiment: Immunostimulatory activity in human CD4+ T cells at 0.1 to 10 uM incubated for 48 hrs by flow cytometry analysis; type: functional, cell-based; settings: dose 0.1-10 µM
Toll-like receptor 2 [7] = biological target: T1, Toll-like receptor 2 (Homo sapiens, UniProt O60603); experiment: Agonist activity at TLR2 in HEK-Blue cells assessed as fold increase in activity 0.0015 to 10 uM incubated for 24 hrs by Quanti-Blue based SEAP assay; type: cell-based; settings: HEK-Blue hTLR2, dose 0.0015-10 µM
[8] = biological target: Toll-like receptor 1/2 (Homo sapiens) (UniProt O60603+Q15399); experiment: Agonist activity at TLR1/TLR2 in human THP-1 cells assessed as induction of TLR1/TLR2 dimerization at 20 uM incubated for 12 hrs by coimmunoprecipitation method; type: cell-based; settings: filed as agonist
Macrophage [9] = experiment: Induction of IL-6 secretion in wild-type C57BL/6 mouse peritoneal macrophages at 0.01 to 10 uM incubated for 24 hrs by ELISA method; type: functional, cell-based; settings: dose 0.01-10 µM
PBMC = experiment: Induction of IL-1beta secretion in human PBMC incubated for 24 hrs by ELISA method; type: functional, cell-based; settings: dose 0.01-10 µM
THP-1 [10] = experiment: Induction of IL-1beta secretion in human PMA-differentiated THP-1 cells incubated for 24 hrs by ELISA method; type: functional, cell-based; settings: dose 0.01-10 µM
Toll-like receptor 2 [11] = biological target: T1, Toll-like receptor 2; experiment: Binding affinity to recombinant human TLR2 expressed in H5 cells by surface plasmon resonance method
Macrophage [12] = experiment: Induction of IL-6 secretion in TLR2-/- C57BL/6 mouse peritoneal macrophages at 0.01 to 10 uM incubated for 24 hrs by ELISA method; type: functional, cell-based; settings: dose 0.01-10 µM
[13] = biological target: Toll-like receptor 5 (Homo sapiens) (UniProt O60602); experiment: Agonist activity at TLR5 in HEK-Blue hTLR5 cells at 0.1 to 100 uM incubated for 24 hrs by Quanti-Blue based SEAP assay; type: cell-based; settings: dose 0.1-100 µM
[14] = Stability in mouse liver microsomes assessed as half life at 250 uM in presence of NADPH by HPLC-MS analysis; type: ADME
THP-1 [15] = experiment: Upregulation of MyD88 expression in human PMA-differentiated THP-1 cells assessed as induction of p65 phosphorylation at 10 uM incubated for 2 hrs by Western blot analysis; type: functional, cell-based
[16] = biological target: Toll-like receptor 8 (Homo sapiens) (UniProt Q9NR97); experiment: Agonist activity at TLR8 in HEK-Blue hTLR8 cells at 0.1 to 100 uM incubated for 24 hrs by Quanti-Blue based SEAP assay; type: cell-based; settings: dose 0.1-100 µM
[17] = biological target: Toll-like receptor 6 (Homo sapiens) (UniProt Q9Y2C9); experiment: Agonist activity at TLR6 in HEK-Blue hTLR2 cells at 0.2 uM incubated for 24 hrs in presence of anti-hTLR6-IgA antibodies measured by Quanti-Blue based SEAP assay; type: cell-based
Toll-like receptor 2 [18] = biological target: T1, Toll-like receptor 2; experiment: Agonist activity at TLR2 in HEK-Blue hTLR2 cells at 0.2 uM incubated for 24 hrs in presence of anti-hTLR2-IgA antibodies measured by Quanti-Blue based SEAP assay; type: cell-based; settings: filed as agonist
B-cell line = experiment: Immunostimulatory activity in mouse C57 spleen B cells in assessed as fold increase at 0.1 to 10 uM incubated for 48 hrs by flow cytometry analysis; type: functional, cell-based; settings: dose 0.1-10 µM

T1 sequence (O60603 whole entry): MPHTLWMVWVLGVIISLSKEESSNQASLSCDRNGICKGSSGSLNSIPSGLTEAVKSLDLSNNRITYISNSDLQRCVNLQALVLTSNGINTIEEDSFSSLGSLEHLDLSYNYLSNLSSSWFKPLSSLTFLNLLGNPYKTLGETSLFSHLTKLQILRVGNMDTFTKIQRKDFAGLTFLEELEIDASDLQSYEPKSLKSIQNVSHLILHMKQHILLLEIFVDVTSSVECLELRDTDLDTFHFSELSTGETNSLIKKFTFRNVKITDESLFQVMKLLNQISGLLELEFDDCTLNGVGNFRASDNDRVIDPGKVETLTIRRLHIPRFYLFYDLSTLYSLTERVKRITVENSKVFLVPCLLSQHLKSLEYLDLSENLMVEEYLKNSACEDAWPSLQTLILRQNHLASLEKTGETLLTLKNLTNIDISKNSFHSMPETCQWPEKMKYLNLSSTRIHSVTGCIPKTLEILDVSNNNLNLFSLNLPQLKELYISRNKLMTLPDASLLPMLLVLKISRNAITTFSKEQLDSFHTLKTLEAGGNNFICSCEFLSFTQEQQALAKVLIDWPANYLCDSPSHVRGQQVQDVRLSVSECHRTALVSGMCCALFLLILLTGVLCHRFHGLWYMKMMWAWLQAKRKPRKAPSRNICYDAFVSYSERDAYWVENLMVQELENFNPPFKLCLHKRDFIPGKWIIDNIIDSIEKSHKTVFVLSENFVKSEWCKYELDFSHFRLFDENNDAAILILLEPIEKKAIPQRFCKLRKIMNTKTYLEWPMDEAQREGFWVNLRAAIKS
Chain of Toll-like receptor 4 (Homo sapiens) (O00206 whole entry): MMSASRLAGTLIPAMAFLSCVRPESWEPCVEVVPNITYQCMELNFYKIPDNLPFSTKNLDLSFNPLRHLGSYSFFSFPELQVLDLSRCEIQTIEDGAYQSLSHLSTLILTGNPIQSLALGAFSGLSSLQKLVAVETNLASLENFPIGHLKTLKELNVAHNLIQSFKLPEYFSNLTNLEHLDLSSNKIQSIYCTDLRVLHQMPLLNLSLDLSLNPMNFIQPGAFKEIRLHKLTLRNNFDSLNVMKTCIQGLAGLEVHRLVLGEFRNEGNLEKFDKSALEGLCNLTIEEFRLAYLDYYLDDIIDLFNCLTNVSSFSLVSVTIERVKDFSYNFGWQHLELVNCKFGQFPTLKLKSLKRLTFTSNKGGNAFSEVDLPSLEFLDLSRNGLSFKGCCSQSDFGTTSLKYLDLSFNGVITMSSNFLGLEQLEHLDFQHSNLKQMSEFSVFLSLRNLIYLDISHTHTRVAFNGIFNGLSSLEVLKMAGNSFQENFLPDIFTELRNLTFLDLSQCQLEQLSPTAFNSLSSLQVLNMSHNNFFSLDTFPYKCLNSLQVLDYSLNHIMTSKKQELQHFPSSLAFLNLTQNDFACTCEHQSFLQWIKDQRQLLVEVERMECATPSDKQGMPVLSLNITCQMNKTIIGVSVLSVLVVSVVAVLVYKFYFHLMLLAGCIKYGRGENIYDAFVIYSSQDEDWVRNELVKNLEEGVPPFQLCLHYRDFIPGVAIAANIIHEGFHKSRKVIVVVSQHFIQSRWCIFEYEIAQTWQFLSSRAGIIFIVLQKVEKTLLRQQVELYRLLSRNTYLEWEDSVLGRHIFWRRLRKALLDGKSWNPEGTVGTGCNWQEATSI
Chain of Toll-like receptor 8 (Homo sapiens) (Q9NR97 whole entry): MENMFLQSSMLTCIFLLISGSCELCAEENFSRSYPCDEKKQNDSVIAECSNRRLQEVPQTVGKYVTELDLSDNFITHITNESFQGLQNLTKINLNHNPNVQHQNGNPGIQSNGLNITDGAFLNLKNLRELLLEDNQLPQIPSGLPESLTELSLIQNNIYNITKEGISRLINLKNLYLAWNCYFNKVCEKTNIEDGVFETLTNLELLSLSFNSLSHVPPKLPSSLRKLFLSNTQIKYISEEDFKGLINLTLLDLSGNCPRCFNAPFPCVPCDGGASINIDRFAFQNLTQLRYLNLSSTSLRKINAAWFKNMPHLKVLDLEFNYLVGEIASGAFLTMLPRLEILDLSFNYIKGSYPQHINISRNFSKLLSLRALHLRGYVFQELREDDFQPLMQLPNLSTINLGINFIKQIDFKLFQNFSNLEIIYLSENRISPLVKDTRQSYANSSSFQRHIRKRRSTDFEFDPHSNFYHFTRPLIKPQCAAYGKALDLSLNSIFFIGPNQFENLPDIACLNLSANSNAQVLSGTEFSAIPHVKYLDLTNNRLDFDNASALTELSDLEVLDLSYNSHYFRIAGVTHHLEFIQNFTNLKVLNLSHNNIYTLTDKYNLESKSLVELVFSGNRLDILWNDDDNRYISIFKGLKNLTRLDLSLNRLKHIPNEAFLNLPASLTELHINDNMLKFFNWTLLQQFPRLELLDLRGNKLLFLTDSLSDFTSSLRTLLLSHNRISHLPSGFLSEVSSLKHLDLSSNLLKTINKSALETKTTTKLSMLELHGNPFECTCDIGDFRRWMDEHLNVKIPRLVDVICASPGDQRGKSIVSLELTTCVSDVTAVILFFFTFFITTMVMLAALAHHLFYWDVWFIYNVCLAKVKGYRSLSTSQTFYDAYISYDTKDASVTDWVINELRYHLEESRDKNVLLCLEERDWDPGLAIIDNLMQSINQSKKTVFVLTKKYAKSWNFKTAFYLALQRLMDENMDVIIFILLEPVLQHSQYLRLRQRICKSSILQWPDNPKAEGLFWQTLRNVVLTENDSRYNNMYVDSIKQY
Chain of Toll-like receptor 3 (Homo sapiens) (O15455 whole entry): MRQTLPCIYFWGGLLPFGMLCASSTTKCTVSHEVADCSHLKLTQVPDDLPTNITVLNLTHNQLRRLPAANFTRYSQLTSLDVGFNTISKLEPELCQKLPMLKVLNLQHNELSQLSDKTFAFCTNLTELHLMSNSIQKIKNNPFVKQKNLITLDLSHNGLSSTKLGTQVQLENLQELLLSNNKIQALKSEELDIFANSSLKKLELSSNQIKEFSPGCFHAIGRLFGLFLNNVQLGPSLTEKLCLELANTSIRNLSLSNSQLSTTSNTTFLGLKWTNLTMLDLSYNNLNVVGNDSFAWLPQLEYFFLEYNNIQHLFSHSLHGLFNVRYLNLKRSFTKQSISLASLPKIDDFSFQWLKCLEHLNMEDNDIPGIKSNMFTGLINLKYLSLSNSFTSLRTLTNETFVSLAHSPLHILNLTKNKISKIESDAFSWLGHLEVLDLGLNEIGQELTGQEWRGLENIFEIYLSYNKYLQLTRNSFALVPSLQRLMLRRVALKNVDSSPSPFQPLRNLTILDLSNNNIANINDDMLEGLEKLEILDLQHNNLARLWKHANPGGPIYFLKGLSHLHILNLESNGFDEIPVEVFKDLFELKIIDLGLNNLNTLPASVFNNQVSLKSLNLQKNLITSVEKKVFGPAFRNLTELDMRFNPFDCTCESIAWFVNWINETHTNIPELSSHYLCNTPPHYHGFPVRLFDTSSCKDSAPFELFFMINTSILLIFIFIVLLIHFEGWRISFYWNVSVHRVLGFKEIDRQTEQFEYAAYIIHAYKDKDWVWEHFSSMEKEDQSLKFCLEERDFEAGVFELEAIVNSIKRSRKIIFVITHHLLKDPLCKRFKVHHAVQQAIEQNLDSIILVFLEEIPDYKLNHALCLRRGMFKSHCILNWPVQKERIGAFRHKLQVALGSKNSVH
Chain of Toll-like receptor 5 (Homo sapiens) (O60602 whole entry): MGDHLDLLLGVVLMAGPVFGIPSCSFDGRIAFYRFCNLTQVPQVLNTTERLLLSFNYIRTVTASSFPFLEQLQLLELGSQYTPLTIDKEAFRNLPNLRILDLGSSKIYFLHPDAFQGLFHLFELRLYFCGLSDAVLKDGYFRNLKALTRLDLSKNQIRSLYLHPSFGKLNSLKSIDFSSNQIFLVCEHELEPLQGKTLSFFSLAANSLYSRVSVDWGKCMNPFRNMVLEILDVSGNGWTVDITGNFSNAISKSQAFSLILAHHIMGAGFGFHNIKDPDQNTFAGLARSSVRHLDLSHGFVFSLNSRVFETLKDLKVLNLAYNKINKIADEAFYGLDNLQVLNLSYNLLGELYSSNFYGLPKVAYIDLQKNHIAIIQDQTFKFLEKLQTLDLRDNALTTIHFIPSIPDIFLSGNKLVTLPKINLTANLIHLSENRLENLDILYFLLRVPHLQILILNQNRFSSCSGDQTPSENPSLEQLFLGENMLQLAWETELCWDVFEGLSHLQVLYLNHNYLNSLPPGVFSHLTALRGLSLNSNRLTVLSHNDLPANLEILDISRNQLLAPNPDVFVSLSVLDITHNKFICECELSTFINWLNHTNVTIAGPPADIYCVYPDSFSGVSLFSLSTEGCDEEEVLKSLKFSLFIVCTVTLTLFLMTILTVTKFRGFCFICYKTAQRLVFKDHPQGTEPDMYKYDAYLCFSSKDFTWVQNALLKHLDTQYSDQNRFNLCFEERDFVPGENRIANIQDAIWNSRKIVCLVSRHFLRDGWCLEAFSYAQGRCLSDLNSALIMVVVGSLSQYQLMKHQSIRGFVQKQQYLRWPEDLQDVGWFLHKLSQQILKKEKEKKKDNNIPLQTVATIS

- Activity [1]: inactive
- Activity [5]: inactive
- fold change (FC) (Toll-like receptor 2 [7]): 370
- Activity [8]: Active
- Kd (Toll-like receptor 2 [11]): 53 nM
- Activity [13]: inactive
- half-life at 250 µM [14]: 1.5 h
- Activity [16]: inactive
- Activity [17]: inactive
- Activity (Toll-like receptor 2 [18]): Active
SMILES: CC(C)OC(=O)c1c(NC(=S)Nc2ccc(F)c3ccccc23)sc2c1CCC2
- Activity [2]: Non-Toxic
- Activity (THP-1 [3]): Active
- Activity (THP-1 [4]): Dose-Dependent Effect
- Activity (THP-1 [6]): inactive
- Activity (CD4+ve Th): Active
- Activity (Macrophage [9]): inactive
- Activity (PBMC): Dose-Dependent Effect
- Activity (THP-1 [10]): Dose-Dependent Effect
- Activity (Macrophage [12]): inactive
- Activity (THP-1 [15]): Active
- Activity (B-cell line): inactive
